Measured values reported in patent publication US11578083B2, “Pyrimidinium compounds and their mixtures for combating animal pests” (BASF SE, priority 2017, dated 2023).

Tests used:
Format in all cases: in vivo
[1] = test system: tobacco budworm (Heliothis virescens); assay: Test 10 tobacco budworm, insect diet with eggs (mixtures)
Experimental: For evaluating control of tobacco budworm (Heliothis virescens) the test unit consisted of 96-well-microtiter plates containing an insect diet and 15-25 H. virescens eggs.
The compounds or mixtures were formulated using a solution containing 75% water and 25% DMSO. Different concentrations of formulated compounds or mixtures were sprayed onto the insect diet at 10 μl, using a custom built micro atomizer, at two replications.
(§1) For experimental mixtures in these tests identical volumes of both mixing partners at the desired concentrations respectively, were mixed together.
After application, microtiter plates were incubated at 28±1° C., 80±5% RH for 5 days. Egg and larval mortality was then visually assessed.

[2] = test system: green peach aphid (Myzus persicae); assay: Test 2 green peach aphid, artificial diet (mixtures)
Description: For evaluating control of green peach aphid (Myzus persicae) through systemic means the test unit consisted of 96-well-microtiter plates containing liquid artificial diet under an artificial membrane.
The compounds or mixtures were formulated using a solution containing 75% water and 25% DMSO. Concentrations of formulated compounds or mixtures were pipetted into the aphid diet, using a custom built pipetter, at two replications.
as §1
After application, 5-8 adult aphids were placed on the artificial membrane inside the microtiter plate wells. The aphids were then allowed to suck on the treated aphid diet and incubated at 23±1° C., 50±5% RH for 3 days. Aphid mortality and fecundity was then visually assessed.

[3] = test system: Rice green leafhopper (Nephotettix virescens); assay: B.1 Rice green leafhopper, sprayed rice seedlings; conditions: 72 h
Experimental: B.1 Rice Green Leafhopper (Nephotettix virescens):
(§2) Rice seedlings are cleaned and washed 24 hours before spraying. The active compounds are formulated in 50:50 acetone:water (vol:vol), and 0.1% vol/vol surfactant (EL 620) is added. Potted rice seedlings are sprayed with 5 ml test solution, air dried, placed in cages and inoculated with 10 adults. Treated rice plants are kept at about 28-29° C. and relative humidity of about 50-60%. Percent mortality is recorded after 72 hours.

[4] = test system: Greenhouse Whitefly (Trialeurodes vaporariorum); assay: Greenhouse Whitefly, egg plant leaf disk (table 5, mixtures); conditions: solo application I-R-1, use rate 2 ppm
Experimental: For evaluating control of Greenhouse Whitefly (Trialeurodes vaporariorum) the test unit consisted of 96-well-microtiter plates containing a leaf disk of egg plant leaf disk with white fly eggs. The compounds or mixtures were formulated using a solution containing 75% water and 25% DMSO. Concentrations of formulated compounds or mixtures were sprayed onto the […] at 2.5 μl, using a custom built micro atomizer, at two replications.
as §1
After application, microtiter plates were incubated at 23±1° C., 65±5% RH for 6 days. Mortality of hatched crawlers was then visually assessed.

[5] = test system: Chilo suppressalis; assay: B.3a Rice stem borer vial bioassay; conditions: 72 h
Experimental: Field-collected rice straws were washed with tap water and cut for a certain of length. Straws were air dried before placing individually in vials (=replicate, 3×). About 125 μl test solution was sprayed per vial. Treated rice straws in vials were air dried under the laboratory hood. After air-drying, each straw was inoculated with 10 newly-emerged (0-day old) stem borer larvae. Vials were then covered. Set-up was kept in a holding room maintained at 27° C. and 65% RH for three days. At 3 days after inoculation, rice straws were manually dissected for larval mortality assessment. The data (Table C) show activity against two species of rice stem borers.

[6] = test system: Rice brown plant hopper (Nilaparvata lugens); assay: B.2 Rice brown plant hopper, sprayed rice seedlings; conditions: 72 h
Experimental: B.2 Rice Brown Plant Hopper (Nilaparvata lugens):
as §2, with “(vol:vol)” for “(vol:vol),”

[7] = test system: Chilo suppressalis; assay: B.3c Rice striped stem borer, drench application; conditions: Chilo suppressalis neonates, Dose 10 mg, 14 DAT
Description: The test solution was poured onto the soil of each potted rice plant (=replicate) with five tillers each pot. After drench application, treated plants were transferred inside the screenhouse for three days prior to stemborer inoculation inside the laboratory. Three days after drench application, 5 to 6-day old egg masses of CHILSU were used for inoculation. All stemborer-infested potted rice plants were transferred inside the screenhouse 1 day after inoculation until the final assessment. […] Whole plant damage was assessed before cutting each hill at the basal portion for tiller dissection. Each dissected tiller was inspected looking for dead (if possible) and alive stemborer larvae.

[8] = test system: vetch aphid (Megoura viciae); assay: Test 1 vetch aphid, leaf disks (mixtures); conditions: Table 1, solo application I-R-1, use rate 20 ppm
Description: Synergism can be described as an interaction where the combined effect of two or more compounds is greater than the sum of the individual effects of each of the compounds. The presence of a synergistic effect in terms of percent control, between two mixing partners (X and Y) can be calculated using the Colby equation (Colby, S. R., 1967, Calculating Synergistic and Antagonistic Responses in Herbicide Combinations, Weeds, 15, 20-22):
When the observed combined control effect is greater than the expected combined control effect (E), then the combined effect is synergistic.
The analysis of synergism or antagonism between the mixtures or compositions was determined using Colby's equation.
For evaluating control of vetch aphid (Megoura viciae) through contact or systemic means the test unit consisted of 24-well-microtiter plates containing broad bean leaf disks.
The compounds or mixtures were formulated using a solution containing 75% water and 25% DMSO. Concentrations of formulated compounds or mixtures were sprayed onto the leaf disks at 2.5 μl, using a custom built micro atomizer, at two replications. […]
After application, the leaf disks were air-dried and 5-8 adult aphids placed on the leaf disks inside the microtiter plate wells. […] Aphid mortality and fecundity was then visually assessed.

[9] = test system: boll weevil (Anthonomus grandis); assay: Test 3 boll weevil, insect diet with eggs (mixtures)
Experimental: For evaluating control of boll weevil (Anthonomus grandis) the test unit consisted of 24-well-microtiter plates containing an insect diet and 20-30 A. grandis eggs.
The compounds or mixtures were formulated using a solution containing 75% water and 25% DMSO. Concentrations of formulated compounds or mixtures were sprayed onto the insect diet at 20 μl, using a custom built micro atomizer, at two replications.
as §1
After application, microtiter plates were incubated at 23±1° C., 50±5% RH for 5 days. Egg and larval mortality was then visually assessed.

## C[n+]1c([O-])c(-c2ccccc2)c(=O)n2c1SC[C@@H]2c1cnc(Cl)s1 [I-R-1, (3R)-3-(2-chlorothiazol-5-yl)-8-methyl-7-oxo-6-phenyl-2,3-dihydrothiazolo[3,2-a]pyrimidin-4-ium-5-olate]
[1]; Table 10.1, solo application I-R-1, use rate 10 ppm
  Average control %: 0%
[1]; Table 10.2, solo application I-R-1, use rate 10 ppm
  Average control %: 25%
[2]; Table 2.1, solo application I-R-1, use rate 2 ppm
  Average control %: 25%
[2]; Table 2.2, solo application I-R-1, use rate 2 ppm
  Average control %: 0%
[2]; Table 2.3, solo application I-R-1, use rate 0.4 ppm
  Average control %: 50%
[2]; Table 2.4, solo application I-R-1, use rate 50 ppm
  Average control %: 0%
[2]; Table 2.5, solo application I-R-1, use rate 2 ppm
  Average control %: 50%
[2]; Table 2.6, solo application I-R-1, use rate 2 ppm
  Average control %: 25%
[3]
  mortality at 1 ppm: 100%
[4]
  Average control %: 0%
[5]
  mortality at 300 ppm: 83%
[6]
  mortality at 1 ppm: 90%
[7]
  Feeding damage (%): 7%
[8]
  Average control %: 0%
[9]; Table 3.1, solo application I-R-1, use rate 50 ppm
  Average control %: 0%
[9]; Table 3.2, solo application I-R-1, use rate 2 ppm
  Average control %: 0%
[9]; Table 3.3, solo application I-R-1, use rate 2 ppm
  Average control %: 0%
